Measured values: patent US8076356B2, “Triazolopyridinylsulfanyl derivatives as P38 map kinase inhibitors” (Pfizer Inc., priority 2004, dated 2011)

Test system: TNFα release from human peripheral blood mononuclear cells
Assay: TNFα screen
Format: cell-based
Settings: LPS-stimulated human peripheral blood mononuclear cells, 18 hours incubation, TNFα in supernatant by ELISA; read-out: TNF IC50
Description: Venous blood is collected from healthy volunteers and the mononuclear cells purified by centrifugation through Histopaque (Ficoll) cushions. TNFα production from these cells is stimulated by addition of lipopolysaccharide. After 18 hours incubation in the presence of LPS, the cell supernatant is removed and the concentration of TNFα in the supernatant determined by ELISA.

IC50	SMILES
1 nM	CSC(C)(C)c1cc(NC(=O)NCc2ccccc2Sc2ccc3nnc(C(C)C)n3c2)n(-c2cc(C)cc(C)c2)n1 [Example 136]
4 nM	CCc1cc(-n2nc(C(C)(C)C)cc2NC(=O)NCc2ccccc2Sc2ccc3nnc(C(C)C)n3c2)ccc1O [Example 74]
0.7 nM	CC(C)(C)c1cc(NC(=O)NCc2ccccc2Sc2ccc3nnc(-c4ccccc4O)n3c2)n(-c2cccc(C#N)c2)n1 [Example 51]
4.5 nM	CCc1ccccc1-c1nnc2ccc(Sc3ccccc3CNC(=O)Nc3cc(C(C)(C)SC)nn3-c3ccc(O)cc3)cn12 [Example 132]
0.9 nM	CC(C)c1nnc2ccc(Sc3ccccc3CNC(=O)Nc3cc(C(C)(C)C)nn3-c3ccc(O)c(Cl)c3)cn12 [Example 73]
0.9 nM	CSCC(C)(C)c1cc(NC(=O)NCc2ccccc2Sc2ccc3nnc(-c4ccccc4O)n3c2)n(-c2ccc(F)c(F)c2)n1 [Example 64]
3.2 nM	CC(C)c1ccccc1-c1nnc2ccc(Sc3ccccc3CNC(=O)Nc3cc(C(C)(C)C)nn3-c3ccc(OCCO)cc3)cn12 [Example 139]
3.2 nM	Cc1ccc(-n2nc(C(C)(C)C)cc2NC(=O)NCc2ccccc2Sc2ccc3nnc(-c4ccccc4OCc4ccccc4)n3c2)cc1 [Example 116]
2.7 nM	CC(C)(C)c1cc(NC(=O)NCc2ccccc2Sc2ccc3nnc(-c4ccc(O)cc4Cl)n3c2)n(-c2ccc(F)c(F)c2)n1 [Example 77]
2.2 nM	CSC(C)(C)c1cc(NC(=O)NCc2ccccc2Sc2ccc3nnc(-c4ccccc4C(C)C)n3c2)n(-c2ccc(O)cc2)n1 [Example 142]
0.9 nM	COc1ccccc1-c1nnc2ccc(Sc3ccccc3CNC(=O)Nc3cc(C(C)(C)C)nn3-c3cccc(O)c3)cn12 [Example 145]
2.7 nM	CC(C)c1nnc2ccc(Sc3ccccc3CNC(=O)Nc3cc(C(C)(C)C)nn3-c3cccc4cnccc34)cn12 [Example 181]
4.9 nM	CSC(C)(C)c1cc(NC(=O)NCc2ccccc2Sc2ccc3nnc(-c4cccc(Cl)c4O)n3c2)n(-c2cccc(C)c2)n1 [Example 152]
1.6 nM	Cc1cccc(-n2nc(C(C)(C)C)cc2NC(=O)NCc2ccccc2Sc2ccc3nnc(-c4cc(Cl)ccc4O)n3c2)c1 [Example 58]
1.8 nM	COc1ccccc1-c1nnc2ccc(Sc3ccccc3CNC(=O)Nc3cc(C(C)(C)SC)nn3-c3ccc(O)cc3)cn12 [Example 140]
1.4 nM	CSCC(C)(C)c1cc(NC(=O)NCc2ccccc2Sc2ccc3nnc(-c4ccccc4O)n3c2)n(-c2cccc(F)c2)n1 [Example 63]
1.2 nM	COc1ccccc1-c1nnc2ccc(Sc3ccccc3CNC(=O)Nc3cc(C(C)(C)C)nn3-c3ccc(O)cc3)cn12 [Example 143]
1.5 nM	CC(C)(C)c1cc(NC(=O)NCc2ccccc2Sc2ccc3nnc(-c4ccccc4SCCO)n3c2)n(-c2cccc(O)c2)n1 [Example 179]

Same assay, conditions: PBMC; LPS-stimulated human peripheral blood mononuclear cells, 18 hours incubation, TNFα in supernatant by ELISA; read-out: TNF IC50

IC50	SMILES
0.6 nM	Cc1ccccc1-c1nnc2ccc(Sc3ccccc3CNC(=O)Nc3cc(C(C)(C)C)nn3-c3cccc(OCCO)c3)cn12 [Example 105, N-{3-tert-Butyl-1-[3-(2-hydroxyethoxy)phenyl]-1H-pyrazol-5-yl}-N′-(2-{[3-(2-methylphenyl)[1,2,4]triazolo[4,3-a]pyridin-6-yl]thio}benzyl)urea]
0.9 nM	CSC(C)(C)c1cc(NC(=O)NCc2ccccc2Sc2ccc3nnc(-c4ccccc4O)n3c2)n(-c2ccc(F)cc2)n1 [Example 94, N-{1-(4-Fluorophenyl)-3-[1-methyl-1-(methylthio)ethyl]-1H-pyrazol-5-yl}-N′-(2-{[3-(2-hydroxyphenyl)[1,2,4]triazolo[4,3-a]pyridin-6-yl]thio}benzyl)urea]
0.9 nM	CC(C)(C)c1cc(NC(=O)NCc2ccccc2Sc2ccc3nnc(-c4ccccc4O)n3c2)n(-c2cccnc2)n1 [Example 70, N-(3-tert-Butyl-1-pyridin-3-yl-1H-pyrazol-5-yl)-N′-(2-{[3-(2-hydroxyphenyl)[1,2,4]triazolo[4,3-a]pyridin-6-yl]thio}benzyl)urea]
1.4 nM	COc1ccccc1-c1nnc2ccc(Sc3ccccc3CNC(=O)Nc3cc(C(C)(C)C)nn3-c3cccc(OCCO)c3)cn12 [Example 45, N-{3-tert-Butyl-1-[3-(2-hydroxyethoxy)phenyl]-1H-pyrazol-5-yl}-N′-(2-{[3-(2-methoxyphenyl)[1,2,4]triazolo[4,3-a]pyridin-6-yl]thio}benzyl)urea]
1.1 nM	CSc1ccccc1-c1nnc2ccc(Sc3ccccc3CNC(=O)Nc3cc(C(C)(C)C)nn3-c3cccc(O)c3)cn12 [Example 93, N-[3-tert-Butyl-1-(3-hydroxyphenyl)-1H-pyrazol-5-yl]-N′-[2-({3-[2-(methylthio)phenyl][1,2,4]triazolo[4,3-a]pyridin-6-yl}thio)benzyl]urea]
0.6 nM	CSC(C)(C)c1cc(NC(=O)NCc2ccccc2Sc2ccc3nnc(-c4ccccc4O)n3c2)n(-c2ccc(F)c(F)c2)n1 [Example 95, N-{1-(3,4-Difluorophenyl)-3-[1-methyl-1-(methylthio)ethyl]-1H-pyrazol-5-yl}-N′-(2-{[3-(2-hydroxyphenyl)[1,2,4]triazolo[4,3-a]pyridin-6-yl]thio}benzyl)urea]
1.1 nM	CC(C)(C)c1cc(NC(=O)NCc2ccccc2Sc2ccc3nnc(-c4ccccc4O)n3c2)n(-c2cccc(OCCO)c2)n1 [Example 80, N-{3-tert-Butyl-1-[3-(2-hydroxyethoxy)phenyl]-1H-pyrazol-5-yl}-N′-(2-{[3-(2-hydroxyphenyl)[1,2,4]triazolo[4,3-a]pyridin-6-yl]thio}benzyl)urea]
1.1 nM	CC(C)c1ccccc1-c1nnc2ccc(Sc3ccccc3CNC(=O)Nc3cc(C(C)(C)C)nn3-c3cccc(OCCO)c3)cn12 [Example 44, N-{3-tert-Butyl-1-[3-(2-hydroxyethoxy)phenyl]-1H-pyrazol-5-yl}-N′-(2-{[3-(2-isopropylphenyl)[1,2,4]triazolo[4,3-a]pyridin-6-yl]thio}benzyl)urea]
0.6 nM	COc1ccc(-n2nc(C(C)(C)C)cc2NC(=O)NCc2ccccc2Sc2ccc3nnc(-c4ccccc4O)n3c2)cc1 [Example 97, N-[3-tert-Butyl-1-(4-methoxyphenyl)-1H-pyrazol-5-yl]-N′-(2-{[3-(2-hydroxyphenyl)[1,2,4]triazolo[4,3-a]pyridin-6-yl]thio}benzyl)urea]
3.6 nM	CSc1ccc(-c2nnc3ccc(Sc4ccccc4CNC(=O)Nc4cc(C(C)(C)C)nn4-c4cccc(O)c4)cn23)cc1 [Example 114, N-[3-tert-Butyl-1-(3-hydroxyphenyl)-1H-pyrazol-5-yl]-N′-[2-({3-[4-(methylthio)phenyl][1,2,4]triazolo[4,3-a]pyridin-6-yl}thio)benzyl]urea]
